In this test the test system is BDF1 mice, s.c. Lewis lung carcinoma, T/C %. As to the kind of experiment: NCI In Vivo Anticancer Drug Screen. Data for tumor model Lewis Lung Carcinoma (subcutaneous) in B6D2F1 (BDF1) mice. Summed up: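 Readout: survival or tumor size, expressed as treated (T) over vehicle control (C). Transplantable tumor implanted in mice; compound given to the treated group.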

Where [1] appears, read: endpoint: mean tumor weight, dose: 50.0 mg/kg/injection, schedule: Q01DX011 (ip), vehicle: saline, higher = larger tumour.
The mark [2] stands for this setting: endpoint: mean tumor weight, dose: 100.0 mg/kg/injection, schedule: Q01DX011 (ip), vehicle: saline, higher = larger tumour.
[3] abbreviates: endpoint: mean tumor weight, dose: 200.0 mg/kg/injection, schedule: Q01DX011 (ip), vehicle: saline, higher = larger tumour.
Setting [4] is: endpoint: median survival time, dose: 12.5 mg/kg/injection, schedule: Q01DX009 (ip), vehicle: saline, higher = longer survival.
The mark [5] stands for this setting: endpoint: median survival time, dose: 12.5 mg/kg/injection, schedule: Q01DX009 (ip), vehicle: saline with Tween-80, higher = longer survival.
Setting [6] is: endpoint: median survival time, dose: 25.0 mg/kg/injection, schedule: Q01DX009 (ip), vehicle: saline with Tween-80, higher = longer survival.
[7] abbreviates: endpoint: median survival time, dose: 3.13 mg/kg/injection, schedule: Q01DX009 (ip), vehicle: saline, higher = longer survival.
[8] abbreviates: endpoint: median survival time, dose: 6.25 mg/kg/injection, schedule: Q01DX009 (ip), vehicle: saline, higher = longer survival.

The structures appear in SMILES notation. Where “and” joins values, the source holds several entries; their conditions need not be identical. Equal entries are not always repeated. Records with an inconclusive call do not appear.

Turning to `c1ccc(OP(Oc2ccccc2)Oc2ccccc2)cc1`, the T/C reads like this: (endpoint: mean tumor weight, dose: 37.0 mg/kg/injection, schedule: Q01DX011 (ip), vehicle: other, higher = larger tumour) 110 % of control; (endpoint: mean tumor weight, dose: 55.0 mg/kg/injection, schedule: Q01DX011 (ip), vehicle: other, higher = larger tumour) 103 % of control; (endpoint: mean tumor weight, dose: 83.0 mg/kg/injection, schedule: Q01DX011 (ip), vehicle: other, higher = larger tumour) 91 % of control; (endpoint: mean tumor weight, dose: 125.0 mg/kg/injection, schedule: Q01DX011 (ip), vehicle: other, higher = larger tumour) 79 % of control.

Turning to `CC[C@@]1(O)C(=O)OCc2c1cc1n(c2=O)Cc2cc3c(OC)cccc3nc2-1`, the T/C is 119 % of control (endpoint: median survival time, dose: 0.12 mg/kg/injection, schedule: Q01DX009 (ip), vehicle: Klucel (hydroxypropylcellulose) (HPC), higher = longer survival); 197 % of control (endpoint: median survival time, dose: 0.25 mg/kg/injection, schedule: Q01DX009 (ip), vehicle: Klucel (hydroxypropylcellulose) (HPC), higher = longer survival); 198 % of control (endpoint: median survival time, dose: 0.51 mg/kg/injection, schedule: Q01DX009 (ip), vehicle: Klucel (hydroxypropylcellulose) (HPC), higher = longer survival); 198 % of control (endpoint: median survival time, dose: 1.0 mg/kg/injection, schedule: Q01DX009 (ip), vehicle: Klucel (hydroxypropylcellulose) (HPC), higher = longer survival).

Turning to `CN(C)[C@@H]1C(=O)C(C(N)=O)=C(O)[C@]2(O)C(=O)C3C(=O)c4c(O)ccc(Cl)c4[C@](C)(O)[C@H]3C[C@@H]12` (some centres not stated), the T/C is, setting by setting: (endpoint: median survival time, dose: 12.5 mg/kg/injection, schedule: Q01DX009 (ip), vehicle: Klucel (hydroxypropylcellulose) (HPC), higher = longer survival) 117 % of control; (endpoint: median survival time, dose: 25.0 mg/kg/injection, schedule: Q01DX009 (ip), vehicle: Klucel (hydroxypropylcellulose) (HPC), higher = longer survival) 120 % of control; (endpoint: median survival time, dose: 50.0 mg/kg/injection, schedule: Q01DX009 (ip), vehicle: Klucel (hydroxypropylcellulose) (HPC), higher = longer survival) 102 % of control and 123 % of control.

On to `O=C(O)C1(NO)CCCC1`, for which the T/C reads like this: (endpoint: mean tumor weight, dose: 55.0 mg/kg/injection, schedule: Q01DX011 (ip), vehicle: saline, higher = larger tumour) 73 % of control; (endpoint: mean tumor weight, dose: 83.0 mg/kg/injection, schedule: Q01DX011 (ip), vehicle: saline, higher = larger tumour) 29 % of control; (endpoint: mean tumor weight, dose: 125.0 mg/kg/injection, schedule: Q01DX011 (ip), vehicle: saline, higher = larger tumour) 27 % of control.

On to `C[n+]1cccc(C(=O)O)c1`, for which the T/C by setting is: under setting [1], 116 % of control; under setting [2], 75 % of control; under setting [3], 60 % of control.

In the case of `C=CCn1c(=O)n(CC=C)c(=O)n(CC=C)c1=O`, the T/C was 82 % of control (endpoint: mean tumor weight, dose: 15.0 mg/kg/injection, schedule: Q01DX011 (ip), vehicle: carboxymethylcellulose (CMC), higher = larger tumour); 112 % of control (endpoint: mean tumor weight, dose: 120.0 mg/kg/injection, schedule: Q01DX011 (ip), vehicle: carboxymethylcellulose (CMC), higher = larger tumour); 67 % of control (endpoint: mean tumor weight, dose: 240.0 mg/kg/injection, schedule: Q01DX011 (ip), vehicle: carboxymethylcellulose (CMC), higher = larger tumour).

In the case of `CC(=O)OC(C)(C)/C=C/C(=O)[C@](C)(O)[C@H]1[C@H](O)C[C@@]2(C)[C@@H]3CC=C4[C@@H](C[C@H](O)C(=O)C4(C)C)[C@]3(C)C(=O)C[C@]12C`, the T/C is 69 % of control (endpoint: mean tumor weight, dose: 0.16 mg/kg/injection, schedule: Q01DX011 (ip), vehicle: saline, higher = larger tumour); 53 % of control (endpoint: mean tumor weight, dose: 0.25 mg/kg/injection, schedule: Q01DX011 (ip), vehicle: saline, higher = larger tumour); 83 % of control (endpoint: mean tumor weight, dose: 0.38 mg/kg/injection, schedule: Q01DX011 (ip), vehicle: saline, higher = larger tumour); 67 % of control (endpoint: mean tumor weight, dose: 0.4 mg/kg/injection, schedule: Q01DX011 (ip), vehicle: carboxymethylcellulose (CMC), higher = larger tumour); 48 % of control (endpoint: mean tumor weight, dose: 0.4 mg/kg/injection, schedule: Q01DX011 (ip), vehicle: saline, higher = larger tumour); 42 % of control (endpoint: mean tumor weight, dose: 0.8 mg/kg/injection, schedule: Q01DX011 (ip), vehicle: saline, higher = larger tumour).

Take `NCCCOc1ccc([N+](=O)[O-])cc1Cl`: the T/C is, setting by setting: under setting [4], 87 % of control; (endpoint: median survival time, dose: 50.0 mg/kg/injection, schedule: Q01DX009 (ip), vehicle: saline, higher = longer survival) 100 % of control and 120 % of control and 121 % of control; (endpoint: median survival time, dose: 100.0 mg/kg/injection, schedule: Q01DX009 (ip), vehicle: saline, higher = longer survival) 87 % of control and 101 % of control and 112 % of control.

Regarding `NC(=S)N/N=C/c1cc(-c2cccc(N)c2)ccn1`, the T/C (endpoint: median survival time, dose: 6.25 mg/kg/injection, schedule: Q01DX009 (ip), vehicle: saline with Tween-80, higher = longer survival) is 106 % of control; the T/C under setting [5] is 102 % of control and 106 % of control; the T/C under setting [6] is 117 % of control and 119 % of control; the T/C (endpoint: median survival time, dose: 50.0 mg/kg/injection, schedule: Q01DX009 (ip), vehicle: saline with Tween-80, higher = longer survival) is 87 % of control and 123 % of control.

In the case of `CC(=O)OC1CC(OC2C(O)CC(OC3C(O)CC(OC4CCC5(C)C(CCC6C5CCC5(C)C(C7=CC(=O)OC7)CCC65O)C4)OC3C)OC2C)OC(C)C1OC1OC(CO)C(O)C(O)C1O` (configuration not stated), the T/C (endpoint: mean tumor weight, dose: 1.2 mg/kg/injection, schedule: Q01DX011 (ip), vehicle: carboxymethylcellulose (CMC), higher = larger tumour) is 55 % of control; the T/C (endpoint: mean tumor weight, dose: 2.5 mg/kg/injection, schedule: Q01DX011 (ip), vehicle: carboxymethylcellulose (CMC), higher = larger tumour) was 60 % of control; the T/C (endpoint: mean tumor weight, dose: 5.0 mg/kg/injection, schedule: Q01DX011 (ip), vehicle: carboxymethylcellulose (CMC), higher = larger tumour) is 32 % of control.

For `C[C@]12CCC(=O)C=C1CC[C@@H]1[C@@H]2C(=O)C[C@]2(C)C3=CC(=O)O[C@H]3C[C@@H]12`, the T/C reads like this: under setting [7], 106 % of control; under setting [8], 109 % of control; under setting [5], 116 % of control; under setting [4], 100 % of control; under setting [6], 91 % of control.

Turning to `CCc1c(CC(=O)O)c2cc(C)ccc2n1Cc1ccc(Cl)cc1`, the T/C by setting is: (endpoint: mean tumor weight, dose: 12.5 mg/kg/injection, schedule: Q01DX011 (ip), vehicle: saline, higher = larger tumour) 72 % of control; (endpoint: mean tumor weight, dose: 25.0 mg/kg/injection, schedule: Q01DX011 (ip), vehicle: saline, higher = larger tumour) 104 % of control; under setting [1], 70 % of control.

For `CC(C)C1=CCC2C(=C1)CCC1C(C)(C(=O)O)CCCC21C` (configuration not stated) (tested in a mixture with another compound), the T/C under setting [1] was 72 % of control; the T/C under setting [2] was 75 % of control; the T/C under setting [3] was 57 % of control; the T/C (endpoint: mean tumor weight, dose: 400.0 mg/kg/injection, schedule: Q01DX011 (ip), vehicle: saline, higher = larger tumour) was 45 % of control.

With `CCC[CH2][Sn]1([CH2]CCC)[N](S(=O)(=O)c2ccc(C)cc2)c2ccccc2[N]1S(=O)(=O)c1ccc(C)cc1`, the T/C by setting is: (endpoint: median survival time, dose: 1.5 mg/kg/injection, schedule: Q01DX009 (ip), vehicle: Klucel (hydroxypropylcellulose) (HPC), higher = longer survival) 111 % of control; (endpoint: median survival time, dose: 3.0 mg/kg/injection, schedule: Q01DX009 (ip), vehicle: Klucel (hydroxypropylcellulose) (HPC), higher = longer survival) 90 % of control; (endpoint: median survival time, dose: 6.0 mg/kg/injection, schedule: Q01DX009 (ip), vehicle: Klucel (hydroxypropylcellulose) (HPC), higher = longer survival) 101 % of control.

Turning to `COc1cc2c(c(OC)c1OC)-c1ccc(OC)c(=O)cc1[C@@H](NC(=O)CF)CC2`, the T/C was 100 % of control (endpoint: median survival time, dose: 0.04 mg/kg/injection, schedule: Q01DX009 (ip), vehicle: saline with Tween-80, higher = longer survival); 95 % of control (endpoint: median survival time, dose: 0.09 mg/kg/injection, schedule: Q01DX009 (ip), vehicle: saline with Tween-80, higher = longer survival); 95 % of control (endpoint: median survival time, dose: 0.18 mg/kg/injection, schedule: Q01DX009 (ip), vehicle: saline with Tween-80, higher = longer survival).

As for `C[C@]12CCC(=O)C=C1CC[C@@H]1[C@@H]2[C@@H](O)C[C@@]2(C)[C@H]1CC[C@]2(O)C(=O)COC(=O)c1ccc([N+](=O)[O-])cc1Cl`, the T/C (endpoint: mean tumor weight, dose: 25.0 mg/kg/injection, schedule: Q01DX011 (sc), vehicle: steriod suspending solution, higher = larger tumour) was 65 % of control; the T/C (endpoint: mean tumor weight, dose: 50.0 mg/kg/injection, schedule: Q01DX011 (sc), vehicle: steriod suspending solution, higher = larger tumour) was 71 % of control; the T/C (endpoint: mean tumor weight, dose: 100.0 mg/kg/injection, schedule: Q01DX011 (sc), vehicle: steriod suspending solution, higher = larger tumour) is 47 % of control; the T/C (endpoint: mean tumor weight, dose: 200.0 mg/kg/injection, schedule: Q01DX011 (sc), vehicle: steriod suspending solution, higher = larger tumour) is 53 % of control; the T/C (endpoint: mean tumor weight, dose: 250.0 mg/kg/injection, schedule: Q01DX011 (sc), vehicle: steriod suspending solution, higher = larger tumour) is 18 % of control; the T/C (endpoint: mean tumor weight, dose: 500.0 mg/kg/injection, schedule: Q01DX011 (sc), vehicle: steriod suspending solution, higher = larger tumour) is 25 % of control. Where the note is “endpoint: mean tumor weight, dose: 750.0 mg/kg/injection, schedule: Q01DX011 (sc), vehicle: steriod suspending solution, higher = larger tumour”, the T/C was 13 % of control.

With `O=P(N1CCOCC1)(N1CC1)N1CC1`, the T/C was 100 % of control (endpoint: median survival time, dose: 0.78 mg/kg/injection, schedule: Q01DX009 (ip), vehicle: saline, higher = longer survival); 124 % of control (endpoint: median survival time, dose: 1.56 mg/kg/injection, schedule: Q01DX009 (ip), vehicle: saline, higher = longer survival); 100 % of control (endpoint: median survival time, dose: 3.12 mg/kg/injection, schedule: Q01DX009 (ip), vehicle: saline, higher = longer survival); 113 % of control under setting [7]; 97 % of control and 110 % of control under setting [8]; 107 % of control (endpoint: median survival time, dose: 25.0 mg/kg/injection, schedule: Q01DX009 (ip), vehicle: saline, higher = longer survival).
